{"source": "patent US11950594B2", "about": "“Methods and compositions for inhibiting formation of biofilms” (INSTITUTE OF MICROBIOLOGY, CHINESE ACADEMY OF SCIENCES, priority 2019, dated 2024)", "key": {"[1]": {"tested_on": "Psl polysaccharide production", "assay": "Psl immunoblot analysis", "type": "cell-based, Pseudomonas aeruginosa", "details": "C9 5 mM, Jensen media, 37° C., 24 hours", "method": "Pseudomonas aeruginosa PAO1 was inoculated in Jensen media at 37° C. for 24 hours with shaking and treated with the coumarin-chalcone compound C9 (5 mM) or DMSO (5 mM), respectively. OD600 values of the overnight cultured bacterial solutions were measured, and a bacterial solution with an OD (optical density) of 10 was collected. The bacterial solution with the OD of 10 was a bacterial solution whose OD600 was 2 and the collected volume was 5 mL. The bacterial solution was centrifuged at 13000 r/min for 5 min and the corresponding supernatant was discarded. The obtained precipitate was dissolved in 100 μL of 0.5 M EDTA. Then the EDTA solution was boiled at 100° C. for 5 min and centrifuged, and the precipitate was discarded. The obtained supernatant was treated with proteinase K (final concentration, 0.5 mg/mL) for 1 h at 60° C., followed by inactivation of proteinase K for 30 min at 80° C. to obtain a polysaccharide extract. A volume of 3 μL of polysaccharide extract was spotted onto a nitrocellulose membrane and dried. After washing with TBST for 3 times, a blocking was done with 10% skimmed milk at room temperature for 1 h. The anti-Psl antibody (i.e., a primary antibody) (1:25,000 dilution) was added and then solution was treated at 25° C. for 1 h. […] Western blot data was quantitatively analyzed using Image Lab™ 5.1 software."}, "pKa by HCl/KOH titration": {"assay": "pKa by HCl/KOH titration", "type": "physicochemical", "details": "titration with HCl (25 mM) and KOH (25 mM)", "method": "UV-Vis spectral analysis was used to study the stability of the coumarin-chalcone compound C9 at a pH range of 3.4 to 8.4. […] After reaching pH=2, KOH (25 mM) was added slowly until the pH reached 12. In this way, a graph of a relationship between the pH and the volume of KOH added was plotted to find an equivalent point and thus the pKa."}, "[2]": {"tested_on": "Staphylococcus aureus biofilm", "assay": "96-well plate crystal violet biofilm detection", "type": "cell-based", "details": "FIG. 11", "method": "1% inoculation amount of the bacterial solution cultured overnight was inoculated into 100 μL Jensen liquid medium. Different equal amounts of bacteria solution with C1 to C12, respectively, or without any additional substance were cultured in a 96-well polyvinyl chloride (PVC) plate (costar) overnight at 30° C. without agitation.\nThe bacterial biomass adsorbed on the 96-well PVC plate was detected by a crystal violet method, and steps were described as below. (1) The non-attached bacteria were removed using a pipettor, then the wells were gently rinsed with normal saline for 3 times. (2) A volume of 120 μL 0.1% crystal violet solution was added to stain the firmly attached bacterial cells in each well, which then staying static at room temperature for 30 min. (3) The PVC plate was taken out, the crystal violet solution was removed with a pipettor, and the non-attached crystal violet solution was washed with normal saline. (4) The crystal violet attached onto the PVC plate was dissolved with 200 μL of 30% acetic acid solution. The OD value of the acetic acid solution in each well was measured at 560 nm with a spectrophotometer.\nFIG. 11 is a schematic diagram illustrating an inhibiting effect of a coumarin-chalcone compound C9 on Staphylococcus aureus and Escherichia coli biofilms. […]"}, "pslA::lacZ": {"tested_on": "pslA::lacZ", "assay": "pslA::lacZ transcription fusion (β-galactosidase activity)", "type": "cell-based, Pseudomonas aeruginosa", "details": "FIG. 5", "method": "1% inoculation amount of overnight cultured Pseudomonas aeruginosa (pslA::lacZ mutant strain) were respectively inoculated in Jensen media with and without coumarin-chalcone compounds C1-C12, and incubated at 37° C. until OD600 reached to 0.5. Bacteria from 1.5 ml culture aliquots were resuspended in 200 μl Z-buffer and frozen/thawed three times to lyses bacteria. Cell lysates were assayed for both β-galactosidase activities as well as for total proteins by BCA assay (Pierce, USA). All β-galactosidase activity units were normalized by total protein per ml aliquot.\nThe units of β-galactosidase activity may be determined according to Equation (1) as follows: Miller units=1000×(OD420−1.7×OD550)/(t×V×OD600) (1) where t denotes a time (unit: min), V denotes the volume (unit: mL).\nAbout 500 bp of DNA fragments upstream of ATG start codon of pslA gene were cloned into a polyclonal site of mini-CTX lacZ vector (note that the selected promoter fragment cannot affect the frameshift mutation). A recombinant plasmid (e.g., pTH2) was transferred into Escherichia coli S17-1λ pir. Then activated PAO1 was inoculated into 5 mL of LBNS medium, and S17-1/pTH2 strain was inoculated into 5 mL of LB medium with tetracycline (Tet) ([…]), and both cultured overnight at 37° C. with 200 rpm. […]"}}}
{"smiles": "COc1cccc(/C=C/C(=O)c2cc3ccccc3oc2=O)c1", "note": "[Compound C9]", "values": [{"measurement": "reduction of Psl production", "setting": "[1]", "result": 60, "unit": "%"}, {"measurement": "pKa", "setting": "pKa by HCl/KOH titration", "result": 5.66}, {"measurement": "reduction of Staphylococcus aureus biofilm", "setting": "[2]", "result": 30, "unit": "%"}, {"measurement": "production of Psl at the transcription level (pslA::lacZ)", "setting": "pslA::lacZ", "result": "affected the production of Psl at the transcription level"}]}
